Experimental data from patent publication EP4635500A1, “THERAPEUTIC AGENT FOR BACTERIAL INFECTION” (Sumitomo Pharma Co., Ltd., priority 2022, dated 2024).
In brackets after ≈: the same amount, converted by molar mass. Read-outs that look alike come from different tables or passages of the source.

Tested on: Enterobacterales
Assay: MIC, broth microdilution, CDC/FDA Antibiotic Resistance Isolate Bank (Example 7, Tables 8, 11, 12)
Assay type: cell-based
Settings: for MIC: read-out: MIC; for MIC90: read-out: MIC90

CO/N=C(\C(=O)N[C@@H]1C(=O)N2C(C(=O)[O-])=C(C[n+]3ccn4ncccc43)CS[C@H]12)c1nsc(N)n1 [Cefozopran, cefozopran]
MIC (Escherichia coli, KUB No. 5767, AR Bank # 371): 32 µg/mL (≈ 62.1 µM)
MIC (Escherichia coli, KUB No. 5768, AR Bank # 372): > 64 µg/mL
MIC (Escherichia coli, KUB No. 5769, AR Bank # 373): 0.5 µg/mL (≈ 0.97 µM)
MIC (Escherichia coli, KUB No. 5770, AR Bank # 374): 1 µg/mL (≈ 1.94 µM)
MIC (Escherichia coli, KUB No. 5774, AR Bank # 378): ≤ 0.03 µg/mL
MIC (Escherichia coli, KUB No. 5779, AR Bank # 433): 16 µg/mL (≈ 31 µM)
MIC (Escherichia coli, KUB No. 5780, AR Bank # 434): 64 µg/mL (≈ 124 µM)
MIC (Escherichia coli, KUB No. 5781, AR Bank # 435): > 64 µg/mL
MIC (Escherichia, KUB No. 57, AR Bank # 436 (row cut off)): 1 µg/mL (≈ 1.94 µM)
MIC (Klebsiella aerogenes, Enterobacter aerogenes, KUB No. 5559, AR Bank # 62): 0.5 µg/mL (≈ 0.97 µM)
MIC (Klebsiella aerogenes, Enterobacter aerogenes, KUB No. 5571, AR Bank # 74): 0.5 µg/mL (≈ 0.97 µM)
MIC (Klebsiella aerogenes, Enterobacter aerogenes, KUB No. 5658, AR Bank # 161): 32 µg/mL (≈ 62.1 µM)
MIC (Klebsiella aerogenes, Enterobacter aerogenes, KUB No. 5777, AR Bank # 431): 4 µg/mL (≈ 7.76 µM)
MIC (Klebsiella oxytoca, KUB No. 5568, AR Bank # 71): > 64 µg/mL
MIC (Klebsiella oxytoca, KUB No. 5644, AR Bank # 147): 1 µg/mL (≈ 1.94 µM)
MIC (Klebsiella oxytoca, KUB No. 5771, AR Bank # 375): 0.5 µg/mL (≈ 0.97 µM)
MIC (Klebsiella oxytoca, KUB No. 5776, AR Bank # 380): 32 µg/mL (≈ 62.1 µM)
MIC (Klebsiella ozaenae, KUB No. 5548, AR Bank# 51): > 64 µg/mL
MIC (Klebsiella ozaenae, KUB No. 5593, AR Bank # 96): > 64 µg/mL
MIC (Klebsiella pnemnonine, KUB No. 5758, AR Bank # 362): 32 µg/mL (≈ 62.1 µM)
MIC (Klebsiella pneumoniae, KUB No. 55, AR Bank# 47): > 64 µg/mL
MIC (Klebsiella pneumoniae, KUB No. 5531, AR Bank# 34): 4 µg/mL (≈ 7.76 µM)
MIC (Klebsiella pneumoniae, KUB No. 5536, AR Bank# 39): > 64 µg/mL
MIC (Klebsiella pneumoniae, KUB No. 5537, AR Bank# 40): > 64 µg/mL
MIC (Klebsiella pneumoniae, KUB No. 5538, AR Bank# 41): > 64 µg/mL
MIC (Klebsiella pneumoniae, KUB No. 5540, AR Bank# 43): > 64 µg/mL
MIC (Klebsiella pneumoniae, KUB No. 5541, AR Bank# 44): > 64 µg/mL
MIC (Klebsiella pneumoniae, KUB No. 5543, AR Bank# 46): > 64 µg/mL
MIC (Klebsiella pneumoniae, KUB No. 5546, AR Bank# 49): > 64 µg/mL
MIC (Klebsiella pneumoniae, KUB No. 5563, AR Bank # 66): > 64 µg/mL
MIC (Klebsiella pneumoniae, KUB No. 5565, AR Bank # 68): > 64 µg/mL
MIC (Klebsiella pneumoniae, KUB No. 5572, AR Bank # 75): > 64 µg/mL
MIC (Klebsiella pneumoniae, KUB No. 5573, AR Bank # 76): 64 µg/mL (≈ 124 µM)
MIC (Klebsiella pneumoniae, KUB No. 5576, AR Bank # 79): > 64 µg/mL
MIC (Klebsiella pneumoniae, KUB No. 5577, AR Bank # 80): > 64 µg/mL
MIC (Klebsiella pneumoniae, KUB No. 5584, AR Bank # 87): 32 µg/mL (≈ 62.1 µM)
MIC (Klebsiella pneumoniae, KUB No. 5594, AR Bank # 97): > 64 µg/mL
MIC (Klebsiella pneumoniae, KUB No. 5595, AR Bank # 98): 16 µg/mL (≈ 31 µM)
MIC (Klebsiella pneumoniae, KUB No. 5603, AR Bank # 106): > 64 µg/mL
MIC (Klebsiella pneumoniae, KUB No. 5604, AR Bank # 107): > 64 µg/mL
MIC (Klebsiella pneumoniae, KUB No. 5606, AR Bank # 109): > 64 µg/mL
MIC (Klebsiella pneumoniae, KUB No. 5609, AR Bank # 112): 32 µg/mL (≈ 62.1 µM)
MIC (Klebsiella pneumoniae, KUB No. 5610, AR Bank # 113): > 64 µg/mL
MIC (Klebsiella pneumoniae, KUB No. 5612, AR Bank # 115): 32 µg/mL (≈ 62.1 µM)
MIC (Klebsiella pneumoniae, KUB No. 5614, AR Bank # 117): > 64 µg/mL
MIC (Klebsiella pneumoniae, KUB No. 5617, AR Bank # 120): 32 µg/mL (≈ 62.1 µM)
MIC (Klebsiella pneumoniae, KUB No. 5622, AR Bank # 125): 32 µg/mL (≈ 62.1 µM)
MIC (Klebsiella pneumoniae, KUB No. 5623, AR Bank # 126): 64 µg/mL (≈ 124 µM)
MIC (Klebsiella pneumoniae, KUB No. 5626, AR Bank # 129): 32 µg/mL (≈ 62.1 µM)
MIC (Klebsiella pneumoniae, KUB No. 5632, AR Bank # 135): > 64 µg/mL
MIC (Klebsiella pneumoniae, KUB No. 5635, AR Bank # 138): > 64 µg/mL
MIC (Klebsiella pneumoniae, KUB No. 5636, AR Bank # 139): 64 µg/mL (≈ 124 µM)
MIC (Klebsiella pneumoniae, KUB No. 5637, AR Bank # 140): > 64 µg/mL
MIC (Klebsiella pneumoniae, KUB No. 5638, AR Bank # 141): > 64 µg/mL
MIC (Klebsiella pneumoniae, KUB No. 5639, AR Bank # 142): > 64 µg/mL
MIC (Klebsiella pneumoniae, KUB No. 5640, AR Bank # 143): > 64 µg/mL
MIC (Klebsiella pneumoniae, KUB No. 5642, AR Bank # 145): 64 µg/mL (≈ 124 µM)
MIC (Klebsiella pneumoniae, KUB No. 5643, AR Bank # 146): > 64 µg/mL
MIC (Klebsiella pneumoniae, KUB No. 5645, AR Bank # 148): 64 µg/mL (≈ 124 µM)
MIC (Klebsiella pneumoniae, KUB No. 5649, AR Bank # 152): > 64 µg/mL
MIC (Klebsiella pneumoniae, KUB No. 5650, AR Bank # 153): > 64 µg/mL
MIC (Klebsiella pneumoniae, KUB No. 5655, AR Bank # 158): > 64 µg/mL
MIC (Klebsiella pneumoniae, KUB No. 5657, AR Bank # 160): 2 µg/mL (≈ 3.88 µM)
MIC (Klebsiella pneumoniae, KUB No. 5757, AR Bank # 361): 16 µg/mL (≈ 31 µM)
MIC (Klebsiella pneumoniae, KUB No. 5759, AR Bank # 363): 16 µg/mL (≈ 31 µM)
MIC (Klebsiella pneumoniae, KUB No. 5760, AR Bank # 364): 4 µg/mL (≈ 7.76 µM)
MIC (Klebsiella pneumoniae, KUB No. 5772, AR Bank # 376): > 64 µg/mL
MIC (Klebsiella pneumoniae, Klebsiella pneumoniae KUB No. 5784, AR Bank #438): > 64 µg/mL
MIC (Klebsiella pneumoniae, Klebsiella pneumoniae KUB No. 5797, AR Bank #453): > 64 µg/mL
MIC (Klebsiella pneumoniae, Klebsiella pneumoniae KUB No. 5809, AR Bank #504): > 64 µg/mL
MIC (Klebsiella pneumoniae, Klebsiella pneumoniae KUB No. 5810, AR Bank #505): > 64 µg/mL
MIC (Klebsiella pneumoniae, Klebsiella pneumoniae KUB No. 5811, AR Bank #506): > 64 µg/mL
MIC (Klebsiella pneumoniae, Klebsiella pneumoniae KUB No. 5812, AR Bank #507): > 64 µg/mL
MIC (Klebsiella pneumoniae, Klebsiella pneumoniae KUB No. 5827, AR Bank #522): > 64 µg/mL
MIC (Klebsiella pneumoniae, Klebsiella pneumoniae KUB No. 5828, AR Bank #523): 32 µg/mL (≈ 62.1 µM)
MIC (Klebsiella pneumoniae, Klebsiella pneumoniae KUB No. 5829, AR Bank #524): 32 µg/mL (≈ 62.1 µM)
MIC (Klebsiella pneumoniae, Klebsiella pneumoniae KUB No. 5830, AR Bank #525): 32 µg/mL (≈ 62.1 µM)
MIC (Kluyvera ascorbata, KUB No. 5641, AR Bank # 144): 16 µg/mL (≈ 31 µM)
MIC (Morganella morganii, KUB No. 5554, AR Bank# 57): > 64 µg/mL
MIC (Morganella morganii, KUB No. 5630, AR Bank # 133): 64 µg/mL (≈ 124 µM)
MIC (Proteus mirabilis, KUB No. 5556, AR Bank# 59): 2 µg/mL (≈ 3.88 µM)
MIC (Proteus mirabilis, KUB No. 5652, AR Bank # 155): 64 µg/mL (≈ 124 µM)
MIC (Proteus mirabilis, KUB No. 5653, AR Bank # 156): 0.5 µg/mL (≈ 0.97 µM)
MIC (Proteus mirabilis, KUB No. 5656, AR Bank # 159): > 64 µg/mL
MIC (Proteus mirabilis, KUB No. 5773, AR Bank # 377): 16 µg/mL (≈ 31 µM)
MIC (Proteus mirabilis, KUB No. 5775, AR Bank # 379): 4 µg/mL (≈ 7.76 µM)
MIC (Providencia rettgeri, KUB No. 5579, AR Bank # 82): 16 µg/mL (≈ 31 µM)
MIC (Raoultella ornithinolvtica, KUB No. 5631, AR Bank # 134): 8 µg/mL (≈ 15.5 µM)
MIC (Salmonella enterica, Salmonella Senftenberg, KUB No. 5624, AR Bank # 127): > 64 µg/mL
MIC (Serratia marcescens, KUB No. 5588, AR Bank # 91): 0.12 µg/mL (≈ 0.233 µM)
MIC (Serratia marcescens, KUB No. 5596, AR Bank # 99): 0.25 µg/mL (≈ 0.485 µM)
MIC (Serratia marcescens, KUB No. 5618, AR Bank # 121): 0.12 µg/mL (≈ 0.233 µM)
MIC (Serratia marcescens, KUB No. 5619, AR Bank # 122): 0.12 µg/mL (≈ 0.233 µM)
MIC (Serratia marcescens, KUB No. 5620, AR Bank # 123): 0.12 µg/mL (≈ 0.233 µM)
MIC (Serratia marcescens, KUB No. 5621, AR Bank # 124): 0.12 µg/mL (≈ 0.233 µM)
MIC (Serratia marcescens, KUB No. 5627, AR Bank # 130): 0.12 µg/mL (≈ 0.233 µM)
MIC (Serratia marcescens, KUB No. 5628, AR Bank # 131): 0.12 µg/mL (≈ 0.233 µM)
MIC (Serratia marcescens, Serratia marcescens KUB No. 5822, AR Bank #517): > 64 µg/mL
MIC (Serratia marcescens, Serratia marcescens KUB No. 5825, AR Bank #520): 0.25 µg/mL (≈ 0.485 µM)
MIC (Serratia marcescens, Serratia marcescens KUB No. 5826, AR Bank #521): 8 µg/mL (≈ 15.5 µM)
MIC50 (carbapenemase-producing Enterobacterales, Metallo-β-lactamase (N = 47), read-out: MIC50): > 64 µg/mL
MIC90 (carbapenemase-producing Enterobacterales, Metallo-β-lactamase (N = 47)): > 64 µg/mL
MIC90 (carbapenemase-producing Enterobacterales, Serine carbapenemase (N=61)): > 64 µg/mL
